# Laboratory results published in publication PMC12074795, “Synthesis and biological evaluation of esterified anti-inflammatory drugs with ethylene glycol linkers: cytotoxicity, anti-inflammatory and antioxidant properties” (Royal Society Open Science, 2025).
# Like-named read-outs stand apart in the source and are kept apart here.
# How the values were obtained:
# [1] = ABTS radical cation scavenging (decolorization) test; type: biochemical; conditions: 734 nm, 30 min
# Description: The in vitro antioxidant ability of the compounds synthesized in this work was evaluated using three different assays, including (i) the ABTS radical cation reduction-decolorization test, which uses the technique of Khan et al. consisting of the reduction of the cation radical by an antioxidant through the discoloration measured by absorption at the wavelength of 734 nm; (ii) interaction with the stable free radical DPPH, based on Bassene’s method, in which the scavenging of DPPH radicals is carried out by a colorimetric method consisting of the reduction of the DPPH radical, determined by its absorption at a wavelength of 517 nm; and (iii) the FRAP test according to the protocol of Path Canada, based on the ability of a substance to reduce Fe^3+ ions to Fe^2+ ions, which, in the presence of 1,10-phenanthroline, form a red-orange complex whose optical density can be measured at 505 nm.
# The modified technique by Khan et al. was used to scavenge ABTS^+• cation radicals through a discoloration test. In this test, potassium permanganate (KMnO4) or potassium persulphate (K2S2O8) reacts with ABTS to generate a blue-green ABTS^+• radical. Antioxidants reduce this radical, leading to a measurable colour change at 734 nm, proportional to the antioxidant concentration. The antioxidant capacity is assessed by comparing the intensity reduction of ABTS colour with that of a reference antioxidant, gallic acid. Stock and dilute solutions of synthetic compounds were prepared as detailed in §3.2.5.1. Diluted concentrations were (50, 25, 12.5, 6.25, 3.125, 1.5625 and 0.78125)/Mi in mM. The ABTS solution was obtained by mixing ABTS with K2S2O8, producing an intense blue colour. The ABTS^+• radical was generated by combining equal volumes of a 4.9 mM K2S2O8 solution and a 7 mM ABTS stock solution, stored in the dark at room temperature for 15 h before use. The 7 mM ABTS stock was then diluted 20 times with distilled water. A total of 25 µl of each dilution was added to wells along with 75 µl of 0.175 mM ABTS+ solution. After 30 min of incubation in the dark at room temperature, optical densities were measured at 734 nm. Negative controls contained the ABTS reagent without synthesized compounds, while positive controls used gallic acid at the same final concentrations as the compounds. Compounds were also tested alone to assess fluorescence. The reduction of ABTS results in a blue discoloration, with lower absorbance indicating higher antioxidant activity.
# The percentages of scavenging or 50% reduction were calculated using gallic acid as a standard for 100% reduction. The concentration of radical scavengers needed to neutralize 50% of free radicals, referred to as SC50, was determined using GraphPad Prism 8.0.1 software (244).
# [2] = Cell viability (MTT) assay on macrophages in primary culture; type: cell-based; conditions: Wistar, mouse, peritoneal macrophages in primary culture, concentrations 2.41 × 10^–4 to 2.41 mM, read-out: half cytotoxic concentration (IC50)
# Description: The inflammatory response is part of the body’s first line of defence against a pathogen. Macrophages are one of the most studied inflammatory cells due to their high involvement in this inflammatory process. The recognition of an antigenic motif by a toll-like receptor on macrophages leads to a cascade of molecular signalling to the synthesis of pro-inflammatory mediators such as NO to eliminate the pathogen. First, the effect of the compounds on cell viability was assessed by measuring the cytotoxicity of the compounds in cell culture using the MTT assay at concentrations ranging from 2.41 × 10^–4 to 2.41 mM (figure 1).
# Peritoneal macrophages were isolated from four eight-week-old, 25 g Wistar mice by intraperitoneal injection of 0.5 ml of 2% starch solution (inflammatory agent) to stimulate their production. Four days later, the animals were sacrificed, and 5 ml of phosphate buffered saline (PBS) buffer (0.1 M, pH 7.4) was injected into their peritoneal cavity with a syringe. […]
# The effect of the solutions of synthetic compounds on the viability of macrophages in primary culture was determined by using the MTT as previously described in the literature. […] Finally, the absorbance of the purple solution was read at 630 nm against the acidified isopropanol solution. The percentage of cell viability was calculated using the following formula: […]
# [3] = first replicate, read-out: ABTS SC50(1)
# [4] = mean of duplicate, read-out: ABTS mean SC50
# [5] = second replicate, read-out: ABTS SC50(2)
SMILES,"EC50 [1, 3]","EC50 [1, 4]","EC50 [1, 5]",IC50 at 3 h [2]
"CCCCCCCCCCCC(=O)OCCOC(=O)C(C)c1ccc(CC(C)C)cc1 (stereo not shown) [Compound 5a, 2-((2-(4-isobutylphenyl)propanoyl)oxy)ethyl dodecanoate]",2770 µM,2790 µM,2810 µM,–
"O=C(/C=C/c1ccccc1)OCCOC(=O)c1ccccc1O [Compound 12, (E)-2-(cinnamoyloxy)ethyl 2-hydroxybenzoate]",3360 µM,3470 µM,3600 µM,–
CCCCCCCCCCCC(=O)OCCOC(=O)c1ccccc1O [DEW4a],3240 µM,3250 µM,3300 µM,–
"CC(C)Cc1ccc(C(C)C(=O)OCCO)cc1 (stereo not shown) [Compound 3, 2-hydroxyethyl 2-(4-isobutylphenyl)propanoate]",3700 µM,3900 µM,4110 µM,–
"O=C(O)/C=C/c1ccccc1 [Compound 11, cinnamic acid, reference compound]",5830 µM,5910 µM,5980 µM,–

# Compounds with a lower EC50 [1, 3], results first:
"EC50 [1, 3]","EC50 [1, 4]","EC50 [1, 5]",SMILES,IC50 at 3 h [2]
1670 µM,1700 µM,1730 µM,"CC(C)Cc1ccc(C(=O)OCCOC(=O)C(C)c2ccc(CC(C)C)cc2)cc1 (stereo not shown) [Compound 2, 2-((2-(4-isobutylphenyl)propanoyl)oxy)ethyl 4-isobutylbenzoate]",4900 µM
210 µM,200 µM,200 µM,"CC(C)Cc1ccc(C(C)C(=O)O)cc1 (stereo not shown) [Compound 1, ibuprofen, reference compound]",–
210 µM,210 µM,210 µM,"O=C(OCCO)c1ccccc1O [Compound 7, 2-hydroxyethyl 2-hydroxybenzoate]",–
210 µM,200 µM,200 µM,"O=C(OCCOC(=O)c1ccccc1O)c1ccccc1O [Compound 13, Ethane-1,2-diyl bis(2-hydroxybenzoate)]",–
180 µM,180 µM,180 µM,"CC(C)Cc1ccc(C(C)C(=O)OCCOC(=O)C=Cc2ccccc2)cc1 (stereo not shown) [Compound 14, 2-((2-(4-isobutylphenyl)propanoyl)oxy)ethyl cinnamate]",–
